Key:
rat [1] = conditions: Sub-acute repeat dose toxicity, sprague dawley, Oral, Gavage/Intubation, dose end: 7 day, group: systemic
dog [2] = conditions: Subchronic oral toxicity in nonrodent, beagle, Gavage/Intubation, dose end: 93 day, group: systemic
dog [3] = conditions: Sub-acute repeat dose toxicity; beagle; Oral; Gavage/Intubation; dose end: 5 day; group: systemic; systemic / in life observation / clinical signs / abnormal feces
rat [4] = conditions: Subchronic oral toxicity in rodents, sprague dawley, Gavage/Intubation, dose end: 93 day, group: systemic
rat [5] = conditions: Sub-acute repeat dose toxicity; sprague dawley; Oral; Gavage/Intubation; dose end: 14 day; group: systemic; systemic / clinical chemistry / 5' nucleotidase / 5' nucleotidase + systemic / clinical chemistry / alanine aminotransferase (alt/sgpt) / …
rabbit [6] = conditions: Sub-acute repeat dose toxicity; new zealand white; Oral; Gavage/Intubation; dose end: 4 day; group: systemic; systemic / in life observation / body weight / body weight + systemic / in life observation / food consumption / food consumption
dog [7] = conditions: Sub-acute repeat dose toxicity; beagle; Oral; Gavage/Intubation; dose end: 14 day; group: systemic; systemic / in life observation / clinical signs / emesis + systemic / in life observation / clinical signs / tremors + systemic / in life …
rabbit [8] = conditions: Sub-acute repeat dose toxicity, new zealand white, Oral, Gavage/Intubation, dose end: 5 day, group: systemic
dog [9] = conditions: Sub-acute repeat dose toxicity, beagle, Oral, Gavage/Intubation, dose end: 5 day, group: systemic
rat [10] = conditions: Sub-acute repeat dose toxicity; sprague dawley; Oral; Gavage/Intubation; dose end: 4 day; group: systemic; systemic / in life observation / clinical signs / respiration (rales) + systemic / in life observation / mortality / mortality + systemic / …
rat [11] = conditions: Prenatal developmental toxicity study, sprague dawley, Injection, Intravenous, dose end: 17 GD
rat [12] = conditions: Fertility (Segment I); sprague dawley; Injection; Intravenous; dose end: 20 GD; group: parental; systemic / in life observation / body weight / body weight gain + systemic / in life observation / food consumption / food consumption + …
rabbit [13] = conditions: Prenatal developmental toxicity study, new zealand white, Injection, Intravenous, dose end: 19 GD
[14] = systemic / clinical chemistry / albumin-globulin ratio / albumin-globulin ratio + systemic / clinical chemistry / cholesterol / cholesterol…
[15] = systemic / in life observation / clinical signs / salivation + systemic / pathology microscopic / liver / vacuolization
[16] = systemic / in life observation / clinical signs / abnormal feces + systemic / in life observation / clinical signs / salivation
[17] = systemic / in life observation / clinical signs / emesis + systemic / organ weight / adrenal gland / absolute + systemic / clinical …
[18] = systemic / in life observation / clinical signs / abnormal respiratory sounds + systemic / in life observation / clinical signs / salivation
[19] = systemic / organ weight / adrenal gland / absolute + systemic / in life observation / food consumption / food consumption + systemic / …
[20] = systemic / in life observation / body weight / body weight + systemic / in life observation / clinical signs / erythema
[21] = systemic / in life observation / clinical signs / erythema
[22] = systemic / in life observation / clinical signs / abnormal feces + systemic / in life observation / clinical signs / arrhythmia + systemic…
[23] = systemic / in life observation / clinical signs / salivation
[24] = group: developmental, developmental / developmental malformation / bone / incomplete ossification + developmental / developmental malformation / bone / knobby + …
[25] = group: developmental, developmental / developmental malformation / ureter / convoluted
[26] = group: maternal, systemic / in life observation / body weight / body weight gain
[27] = group: maternal, systemic / in life observation / body weight / body weight gain + systemic / in life observation / food consumption / food consumption
[28] = group: developmental, developmental / developmental malformation / heart / enlarged aortic valve
[29] = group: maternal, reproductive / offspring survival early / litter size / litter size

`COc1ccc(C(C)(C)C)cc1CN[C@H]1C2CCN(CC2)[C@H]1C(c1ccccc1)c1ccccc1` showed an LOAEL (rat [1]; [14]) greater than 100 mg/kg/day, an NOAEL (rat [1]; [14]) of no less than 100 mg/kg/day and an LEL (rat [1]; [15]) of 30 mg/kg/day. It also gave an NEL (rat [1]; [15]) of less than 30 mg/kg/day, an LEL (dog [2]; [16]) of 1 mg/kg/day and an NEL (dog [2]; [16]) of less than 1 mg/kg/day. It also gave an LOAEL (dog [2]; [17]) greater than 20 mg/kg/day, an NOAEL (dog [2]; [17]) of no less than 20 mg/kg/day and an LEL (dog [3]) of 5 mg/kg/day. For the same compound, the LOAEL (dog [3]) was greater than 20 mg/kg/day, the NEL (dog [3]) was less than 5 mg/kg/day and the NOAEL (dog [3]) was no less than 20 mg/kg/day. It also gave an LEL (rat [4]; [18]) of 5 mg/kg/day, an NEL (rat [4]; [18]) of less than 5 mg/kg/day and an LOAEL (rat [4]; [19]) greater than 150 mg/kg/day. It also gave an NOAEL (rat [4]; [19]) of no less than 150 mg/kg/day, an LOAEL (rat [5]) greater than 500 mg/kg/day and an NEL (rat [5]) of less than 150 mg/kg/day. For the same compound, the NOAEL (rat [5]) was no less than 500 mg/kg/day, the LOAEL (rabbit [6]) was greater than 150 mg/kg/day and the NEL (rabbit [6]) was 30 mg/kg/day. It also gave an NOAEL (rabbit [6]) of no less than 150 mg/kg/day, an LEL (dog [7]) of 20 mg/kg/day and an LOAEL (dog [7]) greater than 20 mg/kg/day. The NEL (dog [7]) was less than 20 mg/kg/day, the NOAEL (dog [7]) was no less than 20 mg/kg/day and the LOAEL (rabbit [8]; [20]) was greater than 150 mg/kg/day. The NOAEL (rabbit [8]; [20]) was no less than 150 mg/kg/day, the LEL (rabbit [8]; [21]) was 5 mg/kg/day and the NEL (rabbit [8]; [21]) was less than 5 mg/kg/day. It also gave an LOAEL (dog [9]; [22]) greater than 20 mg/kg/day, an NOAEL (dog [9]; [22]) of no less than 20 mg/kg/day and an LEL (dog [9]; [23]) of 5 mg/kg/day. It also gave an NEL (dog [9]; [23]) of less than 5 mg/kg/day, an LEL (rat [10]) of 300 mg/kg/day and an LOAEL (rat [10]) greater than 300 mg/kg/day. For the same compound, the NEL (rat [10]) was less than 300 mg/kg/day and the NOAEL (rat [10]) was no less than 300 mg/kg/day.
With `CCOC(=O)c1ccc(C2CCC(NC[C@H](O)COc3ccc(O)c(NS(C)(=O)=O)c3)CC2)cc1.Cl` (stereo partly specified) the LOAEL (rat [11]; [24]) was 160 mg/kg/day, the NOAEL (rat [11]; [24]) was 40 mg/kg/day and the LEL (rat [11]; [25]) was 10 mg/kg/day. The NEL (rat [11]; [25]) was less than 10 mg/kg/day, the LEL (rat [11]; [26]) was 10 mg/kg/day and the NEL (rat [11]; [26]) was less than 10 mg/kg/day. It also gave an LOAEL (rat [11]; [27]) of 160 mg/kg/day, an NOAEL (rat [11]; [27]) of 40 mg/kg/day and an LEL (rat [12]) of 160 mg/kg/day. The LOAEL (rat [12]) was 160 mg/kg/day, the LEL (rabbit [13]; [28]) was 160 mg/kg/day and the LOAEL (rabbit [13]; [28]) was greater than 160 mg/kg/day. It also gave an NEL (rabbit [13]; [28]) of 80 mg/kg/day, an NOAEL (rabbit [13]; [28]) of no less than 160 mg/kg/day and an LOAEL (rabbit [13]; [29]) of 80 mg/kg/day. The NOAEL (rabbit [13]; [29]) was 40 mg/kg/day, the LEL (rabbit [13]; group: maternal, reproductive / offspring survival early / litter size / litter size + reproductive / reproductive performance / postimplantation loss / …) was 80 mg/kg/day and the NEL (rabbit [13]; group: maternal, reproductive / reproductive performance / postimplantation loss / postimplantation loss + reproductive / reproductive performance / …) was 40 mg/kg/day.

— EPA's ToxRefDB 2
